In patent publication US20240240224A1, “FLUORESCENT D-TYPE AMINO ACID METABOLISM MARKER-BASED METHOD FOR DETECTING ANTIBACTERIAL DRUG SENSITIVITY TEST” (priority 2020, published 2024):
Values after ≈ are worked out from the molar mass of the structure shown.

What was measured:
P. aeruginosa Pa3 [1] = experiment: FaAST (FDAA metabolic labeling); assay type: cell-based, Pseudomonas aeruginosa; settings: unit assumed
Procedure: (§1) The specific experimental steps are as follows: • 1. Take the colony to be tested that has been cultured overnight on the plate and fully mix it in normal saline to make a uniform bacterial solution. Dilute it into CAMHB medium to make a bacterial solution with OD600=0.05. • 2. Add 45 μl antibiotic solutions to be tested of different concentrations to 96-well plates (see Table 3 for antibiotic concentration gradient settings). • 3. Add 50 μl of bacterial solution prepared in Step 1 to the 96-well plate and mix well. • 4.5 μl of 10 mM Cy5-DAA probe was added to each well (final concentration was 0.15 mM, and its structure was shown in FIG. 1). After mixing, the probe was incubated for 2 hours in the dark. • 5. After dilution with 200 μl PBS solution, the fluorescence intensity of each sample was detected by flow cytometry. The flow detection results are shown in the attached FIG. 4-5, showing the curve of antibiotic concentration gradient and fluorescence intensity, and the MIC (minimum inhibitory concentration) is obtained by referring to this curve.
(§2) Antibiotic resistant strains are shown in bold in the table below.

Pa ATCC 27853 [2] = experiment: FaAST (FDAA metabolic labeling); assay type: cell-based, Pseudomonas aeruginosa; settings: unit assumed
Procedure: as §1, §2

P. aeruginosa Pa2 [3] = experiment: FaAST (FDAA metabolic labeling); assay type: cell-based, Pseudomonas aeruginosa; settings: unit assumed
Procedure: as §1, §2

E. coli Ec13 [4] = experiment: BMD susceptibility test; assay type: cell-based, Escherichia coli; settings: unit assumed
K. pneumoniae Kp6 [5] = experiment: FaAST (FDAA metabolic labeling); assay type: cell-based, Klebsiella pneumoniae; settings: unit assumed
Procedure: as §1, with “cytometry.” for “cytometry. The flow detection results are shown in the attached FIG. 4-5, showing the curve of antibiotic concentration gradient and fluorescence intensity, and the MIC (minimum inhibitory concentration) is obtained by referring to this curve.”

[6] = test system: Klebsiella pneumoniae KPN6; experiment: FaAST with DAA-Tetra probe; assay type: cell-based; settings: unit assumed
Procedure: The specific experimental steps are as follows: • 1. The tested colonies cultured overnight on the plate were picked and mixed thoroughly in 2× Cation-Adjusted Mueller Hinton Broth medium (2×CAMHB) to make bacterial suspension with turbidity of OD600=0.1. • 2. […] Add 50 μL of the bacterial solution prepared in step 1 (the final concentration of the bacterial solution is OD600=0.05) to the 96-well plate, and add 5 μL of 3 mM DAA-Tetra probe (the final concentration is 0.15 mM), mix well, and incubate in the dark at 37° C. 120 rpm for 2 hours. • 4. After culture, dilute the mixed bacterial solution 10 times with PBS solution, and detect the fluorescence intensity of each sample with flow cytometry. The flow detection result is shown in FIG. 14-19, and the arrow is for the MIC value. The minimum inhibitory concentration of antibiotics was obtained according to the fluorescence signal intensity of flow detection, and the statistical results are shown in Table 6.

A. baumannii Ab19 [7] = experiment: BMD susceptibility test; assay type: cell-based, Acinetobacter baumannii; settings: unit assumed
P. aeruginosa Pa3 [8] = experiment: BMD susceptibility test; assay type: cell-based, Pseudomonas aeruginosa; settings: unit assumed
E. coli Ec13 [9] = experiment: FaAST (FDAA metabolic labeling); assay type: cell-based, Escherichia coli; settings: unit assumed
Procedure: as §1, with “cytometry.” for “cytometry. The flow detection results are shown in the attached FIG. 4-5, showing the curve of antibiotic concentration gradient and fluorescence intensity, and the MIC (minimum inhibitory concentration) is obtained by referring to this curve.”

Ec ATCC 25922 [10] = settings: cited from earlier work
Pa ATCC 27853 [11] = settings: cited from earlier work
P. aeruginosa Pa2 [12] = experiment: BMD susceptibility test; assay type: cell-based, Pseudomonas aeruginosa; settings: unit assumed
E. coli Ec11 [13] = experiment: BMD susceptibility test; assay type: cell-based, Escherichia coli; settings: unit assumed
E. coli Ec11 [14] = experiment: FaAST (FDAA metabolic labeling); assay type: cell-based, Escherichia coli; settings: unit assumed
Procedure: as §1, §2

Ec ATCC 25922 [15] = experiment: FaAST (FDAA metabolic labeling); assay type: cell-based, Escherichia coli; settings: unit assumed
Procedure: as §1, §2

K. pneumoniae Kp6 [16] = experiment: BMD susceptibility test; assay type: cell-based, Klebsiella pneumoniae; settings: unit assumed
[17] = test system: Klebsiella pneumoniae KPN6; experiment: VITEK drug sensitivity test; assay type: cell-based; settings: unit assumed
Pa ATCC 27853 [18] = experiment: BMD susceptibility test; assay type: cell-based, Pseudomonas aeruginosa; settings: unit assumed
A. baumannii Ab19 [19] = experiment: FaAST (FDAA metabolic labeling); assay type: cell-based, Acinetobacter baumannii; settings: unit assumed
Procedure: as §1, §2

Ec ATCC 25922 [20] = experiment: BMD susceptibility test; assay type: cell-based, Escherichia coli; settings: unit assumed
E.coli 1113 [21] = experiment: Vitek 2 drug sensitivity test; assay type: cell-based, Escherichia coli; on Sensibility: key: S: Drug sensitive; R: Drug resistance
E.coli 1146 [22] = experiment: FDAA metabolic labeling susceptibility test (Cy5-DAA probe, flow cytometry); assay type: cell-based, Escherichia coli; settings: Escherichia coli; E.coli 1146; Cy5-DAA probe, 2 hours; read-out: MIC, FDAA
Procedure: as §1

E.coli 1113 [23] = experiment: as above; assay type: cell-based, Escherichia coli; settings: Escherichia coli; E.coli 1113; Cy5-DAA probe, 2 hours; read-out: MIC, FDAA
Procedure: as §1

E.coli 1146 [24] = experiment: Vitek 2 drug sensitivity test; assay type: cell-based, Escherichia coli; on Sensibility: key: S: Drug sensitive; R: Drug resistance
A. baumannii Ab16 [25] = experiment: BMD susceptibility test; assay type: cell-based, Acinetobacter baumannii; settings: unit assumed
A. baumannii Ab16 [26] = experiment: FaAST (FDAA metabolic labeling); assay type: cell-based, Acinetobacter baumannii; settings: unit assumed
Procedure: as §1, with “cytometry.” for “cytometry. The flow detection results are shown in the attached FIG. 4-5, showing the curve of antibiotic concentration gradient and fluorescence intensity, and the MIC (minimum inhibitory concentration) is obtained by referring to this curve.”

## NCC[C@H](O)C(=O)N[C@@H]1C[C@H](N)[C@@H](O[C@H]2O[C@H](CN)[C@@H](O)[C@H](O)[C@H]2O)[C@H](O)[C@H]1O[C@H]1O[C@H](CO)[C@@H](O)[C@H](N)[C@H]1O [Amikacin]
P. aeruginosa Pa3 [1]
  FaAST (MIC): 8 µg/mL
Pa ATCC 27853 [2]
  FaAST (MIC): 4 µg/mL
P. aeruginosa Pa2 [3]
  FaAST (MIC): 0.5 µg/mL
E. coli Ec13 [4]
  BMD (MIC): 2 µg/mL
K. pneumoniae Kp6 [5]
  FaAST (MIC): 0.5 µg/mL
[6]
  MIC, FaAST: 0.5 µg/mL (≈ 0.854 µM)
A. baumannii Ab19 [7]
  BMD (MIC): 2 µg/mL
P. aeruginosa Pa3 [8]
  BMD (MIC): 4 µg/mL
E. coli Ec13 [9]
  FaAST (MIC): 1 µg/mL
Ec ATCC 25922 [10]
  CLSI QC range: 0.5-4^
Pa ATCC 27853 [11]
  CLSI QC range: 1-4
P. aeruginosa Pa2 [12]
  BMD (MIC): 2 µg/mL
E. coli Ec11 [13]
  BMD (MIC): 4 µg/mL
E. coli Ec11 [14]
  FaAST (MIC): 8 µg/mL
Ec ATCC 25922 [15]
  FaAST (MIC): 2 µg/mL
K. pneumoniae Kp6 [16]
  BMD (MIC): 0.5 µg/mL
[17]
  MIC, VITEK: 0.5 µg/mL (≈ 0.854 µM)
Pa ATCC 27853 [18]
  BMD (MIC): 2 µg/mL
A. baumannii Ab19 [19]
  FaAST (MIC): 2 µg/mL
Ec ATCC 25922 [20]
  BMD (MIC): 1 µg/mL

## CO/N=C(\C(=O)N[C@@H]1C(=O)N2C(C(=O)[O-])=C(C[N+]3(C)CCCC3)CS[C@H]12)c1csc(N)n1 [Cefepime, cefepime]
P. aeruginosa Pa3 [1]
  FaAST (MIC): 4 µg/mL
Pa ATCC 27853 [2]
  FaAST (MIC): 2 µg/mL
P. aeruginosa Pa2 [3]
  FaAST (MIC): 0.5 µg/mL
E. coli Ec13 [4]
  BMD (MIC): > 64 µg/mL
K. pneumoniae Kp6 [5]
  FaAST (MIC): 0.5 µg/mL
A. baumannii Ab19 [7]
  BMD (MIC): 1 µg/mL
E.coli 1113 [21]
  MIC, Vitek 2: > 64 µg/mL
  Sensibility: R
P. aeruginosa Pa3 [8]
  BMD (MIC): 8 µg/mL
E. coli Ec13 [9]
  FaAST (MIC): > 128 µg/mL
Ec ATCC 25922 [10]
  CLSI QC range: 0.016-0.12
Pa ATCC 27853 [11]
  CLSI QC range: 0.5-4
P. aeruginosa Pa2 [12]
  BMD (MIC): 1 µg/mL
E. coli Ec11 [13]
  BMD (MIC): ≤ 0.25 µg/mL
E. coli Ec11 [14]
  FaAST (MIC): 0.5 µg/mL
Ec ATCC 25922 [15]
  FaAST (MIC): ≤ 0.25 µg/mL
K. pneumoniae Kp6 [16]
  BMD (MIC): ≤ 0.25 µg/mL
E.coli 1146 [22]
  MIC: 4 µg/mL (≈ 8.32 µM)
E.coli 1113 [23]
  MIC: ≥ 128 µg/mL
E.coli 1146 [24]
  Sensibility: S
E.coli 1146 [24]; Escherichia coli
  MIC: ≤ 1 µg/mL
A. baumannii Ab16 [25]
  BMD (MIC): 128 µg/mL
A. baumannii Ab16 [26]
  FaAST (MIC): 64 µg/mL
Pa ATCC 27853 [18]
  BMD (MIC): 2 µg/mL
A. baumannii Ab19 [19]
  FaAST (MIC): 1 µg/mL
Ec ATCC 25922 [20]
  BMD (MIC): ≤ 0.25 µg/mL
